In the experiment the test system is exon 10 of the human tau gene. In words: High-throughput small molecule screen with two-color fluorescent (GFP/RFP) splicing reporter in stable cell line. The class given is cell-based. From the text: Exon 10 of the human tau gene (SEQ ID NO:9; see also, GenBank Accession No. AF027494) containing short stretches (about 50-100 nucleotides) of each of the flanking introns (i.e., intronic sequences from introns 9 and 10; see, e.g., Wang et al., J. Neurochem., 88:1078-1090 (2004)) was cloned into the EcoRI and BamHI restriction sites of the reporter intron (SEQ ID NO:2), which interrupts the start codon of the GFP open reading frame. The clone was linearized using DraIII and transfected into adherent mammalian cells.
In particular, the background was calculated by measuring the fluorescence of each channel after excitation with shorter wavelengths than the optimal for the reporter proteins. This measurement was corrected using data from non-reporter cells before being subtracted from the reporter-expressing cells as background. The following formulas describe the background subtraction procedure: […]
The two-color fluorescent reporter constructs described above carrying exon 10 of the human tau gene were used in high-throughput small molecule screens of a library of enzyme inhibitors (FIG. 6A) and a library of FDA approved drugs (FIG. 6B). The stable cell line was plated at density of 5000 cells per well in 384-well plates. HEK 293 cells to be used as the non-fluorescent control for background subtraction were plated in separate plates at the same density. Each library was applied to the plates and the cells were incubated for 16 hours. The media was removed and the cells were lysed in RIPA buffer (1% Nonidet P-40, 1% sodium deoxycholate, 0.1% SDS, 150 mM NaCl, 10 mM sodium phosphate (pH 7.2), 2 mM EDTA, 50 mM NaF, 5 mM beta-glycerophosphate). The fluorescence intensities were measured using an Analyst AD plate reader. The background was subtracted as described above and the logarithm at base 2 was calculated for the ratio of RFP to GFP fluorescence intensities (log-ratio) and the product of the GFP and RFP fluorescence intensities (log-expression) for each data point. The log-ratios were normalized by Lowess regression using the log-expression as an independent variable.

Where [1] appears, read: log2 of RFP/GFP fluorescence, background subtracted, Lowess normalized, enzyme inhibitor library, 16 hours incubation, DMSO control −0.21.

Like-named read-outs stand apart in the source and are kept apart here.

As to `CC(=O)c1c(O)c(C)c(O)c(Cc2c(O)c3c(c(C(=O)/C=C/c4ccccc4)c2O)OC(C)(C)C=C3)c1O` [ROTTLERIN], the Log-ratio under setting [1] is 1.27. Regarding `CC(C)(C)c1cc(C=C(C#N)C#N)cc(C(C)(C)C)c1O` [TYRPHOSTIN 9], the Log-ratio under setting [1] stood at 1.69.

In the case of `Cc1cc(O)c2c(=O)c3c(O)cc(O)c4c5c(O)cc(O)c6c(=O)c7c(O)cc(C)c8c1c2c(c34)c(c78)c65` [HYPERICIN], the Log-ratio under setting [1] was 1.14.

Regarding `O=c1[nH]c2ccccc2n1C1CCN(CCCC(c2ccc(F)cc2)c2ccc(F)cc2)CC1` [PIMOZIDE], the Log-ratio under setting [1] came to 0.69. Turning to `N#CC(=C(/N)Sc1ccccc1N)/C(C#N)=C(\N)Sc1ccccc1N` [Compound U-0126], the Log-ratio amounted to 0.44. For the compound `O=S(=O)(c1cccc2c(I)cccc12)N1CCCNCC1` [ML-7], under setting [1], the Log-ratio amounted to 0.72. In the case of `CN(C)C(=O)C(CCN1CCC(O)(c2ccc(Cl)cc2)CC1)(c1ccccc1)c1ccccc1` [LOPERAMIDE], the Log-ratio is given as 0.72. Take `C=C[C@H]1C[N@@]2CC[C@H]1C[C@H]2[C@H](O)c1ccnc2ccc(OC)cc12` [QUININE]: the Log-ratio under setting [1] is given as 0.43. For the compound `CCCCC/C=C\C/C=C\C/C=C\CCCCCCC(=O)NCC(=O)O` [Dihomo-gamma-linolenoyl glycine], the Log-ratio under setting [1] is recorded as 0.49. Still for that read-out and setting: under `O=c1cc(N2CCOCC2)oc2c(-c3ccccc3)cccc12` [LY 294002] stands 0.85; under `N/C(=N\C(=O)c1nc(Cl)c(N)nc1N)NCc1ccc(Cl)c(Cl)c1` [DICHLOROBENZAMIL], 1.75; under `COC(=O)C1=C(C)NC(C)=C(C(=O)OCCN(C)Cc2ccccc2)C1c1cccc([N+](=O)[O-])c1` (stereo not drawn) [NICARDIPINE], 0.68. Regarding `CC(C)COCC(CN(Cc1ccccc1)c1ccccc1)N1CCCC1` (stereo not drawn) [BEPRIDIL], the Log-ratio under setting [1] is 0.74. Regarding `CCCCC/C=C\C/C=C\C/C=C\C/C=C\CCCC(=O)N[C@@H](C)C(=O)O` [Arachidonoyl alanine], the Log-ratio under setting [1] amounted to 0.38. As to `Nc1ncnc2c1c(I)cn2[C@@H]1O[C@H](CO)[C@@H](O)[C@H]1O` [5-IODOTUBERCIDIN], the Log-ratio under setting [1] is on record as −1.03. On to `CC(C)(C)c1cc(/C=C(\C#N)C(N)=S)cc(C(C)(C)C)c1O` [AG-879], for which the Log-ratio under setting [1] is on record as 1.59. Consider `COC[C@H]1OC(=O)c2coc3c2[C@@]1(C)C1=C(C3=O)[C@@H]2CCC(=O)[C@@]2(C)C[C@H]1OC(C)=O` [WORTMANNIN], for which, under setting [1], the Log-ratio was determined as 1.37.

`CC1(C(=O)O)C2CCC(O2)C1(C)C(=O)O` (stereo not drawn) [CANTHARIDIC ACID]: the Log-ratio under setting [1] was −1.72. Take `COc1ccc(S(=O)(=O)N(CCO)c2ccccc2CN(C)C/C=C/c2ccc(Cl)cc2)cc1` [KN-93]: the Log-ratio under setting [1] amounted to 0.75.

On to `Oc1ccc(-c2nc(-c3ccncc3)c(-c3ccc(F)cc3)[nH]2)cc1` [SB-202190], for which the Log-ratio under setting [1] is on record as 0.46. Still for that read-out and setting: for `NCCNS(=O)(=O)c1cccc2cnccc12` [Compound H-9] the value was 0.61. Same read-out and setting: for `N#C/C(=C\c1ccc(O)c(O)c1)C(N)=S` [TYRPHOSTIN 47] the value was 0.48. As for `CN(CCc1ccc(Cl)c(Cl)c1)CC(O)COc1ccc(NS(C)(=O)=O)cc1` (stereo not drawn) [AM 92016], the Log-ratio under setting [1] turned out to be 0.44.

`O=S(=O)(c1cccc2c(Cl)cccc12)N1CCCNCC1` [ML-9]: the Log-ratio under setting [1] came out at 0.52.

Take `C=C(C)[C@H]1O[C@H]2CC[C@@]3(C)[C@@](O)(CC[C@H]4[C@@H]5OC(C)(C)[C@H]6C[C@@H]7C(=C)Cc8c(Cl)cc9[nH]c(c5c9c8[C@@]76O)[C@@]43C)[C@@]23O[C@H]3[C@H]1O` [PENITREM A]: the Log-ratio under setting [1] is recorded as 0.56. As for `CCCCc1oc2ccccc2c1C(=O)c1cc(I)c(OCCN(CC)CC)c(I)c1` [AMIODARONE], the Log-ratio under setting [1] worked out at 0.63.

`CCCCCCCCCCCCCCCC(=O)OC(CC(=O)O)C[N+](C)(C)C.[Cl-]` (racemic) [PALMITOYL-DL-CARNITINE CI]: under setting [1], the Log-ratio is given as 0.61.

(Values after US8580511B2, “Two-color fluorescent reporter for alternative pre-mRNA splicing” (The Regents of the University of California, priority 2006, dated 2013).)
